Several values for one entry are separate records, joined by “and”; a condition that tells them apart may be missing. Equal entries are not always repeated.
Tested on: 485176-168-R4-J1-PDC complex spheroid growth
Assay: Anticancer human tumor 485176-168-R4-J1-PDC patient-derived pancreatic adenocarcinoma cell line growth inhibition [RAS]
Conditions: for viability, T/C: stronger effect = lower value
Summary of the method: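 Multi-cell-type spheroids: tumor cells plus HUVEC endothelial cells and mesenchymal stem cells. RAS-pathway inhibitors were combined with targeted agents, each dosed in half-log steps down from clinical Cmax, or from 10 microM when Cmax was unknown.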
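Note: spheroids exposed to compounds for seven days before readout.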
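Throughout, for viability, T/C: luminescence viability expressed relative to DMSO vehicle wells set as 100%.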

C[C@@H](NC(=O)c1ncnc(N)c1Cl)c1ncc(C(=O)Nc2cc(C(F)(F)F)c(Cl)cn2)s1 + CCn1c(-c2cc(N3CCN(C)CC3)cnc2C(C)OC)c2c3cc(ccc31)-c1csc(n1)CC(NC(=O)C1CC1C)C(=O)N1CCCC(N1)C(=O)OCC(C)(C)C2 gave an IC50 (curve of first compound, second compound 0.000949 µM) greater than 10000 nM, an IC50 (curve of first compound, second compound 0.003 µM) greater than 10000 nM and an IC50 (curve of first compound, second compound 0.00949 µM) greater than 10000 nM. It also gave an IC50 (curve of first compound, second compound 0.03 µM) greater than 10000 nM, an IC50 (curve of first compound, second compound 0.0949 µM) of 2380 nM and an IC50 (curve of first compound, second compound 0.3 µM) of 4370 nM. For the same compound, the viability, T/C (second compound 0.000949 µM, first compound 0.0316 µM) was 102%, the viability, T/C (second compound 0.000949 µM, first compound 0.1 µM) was 92.3% and the viability, T/C (second compound 0.000949 µM, first compound 0.316 µM) was 83.9%. It also gave a viability, T/C (second compound 0.000949 µM, first compound 1 µM) of 67.5%, a viability, T/C (second compound 0.000949 µM, first compound 3.16 µM) of 83.7% and a viability, T/C (second compound 0.000949 µM, first compound 10 µM) of 83.8%. It also gave a viability, T/C (second compound 0.003 µM, first compound 0.0316 µM) of 86.6%, a viability, T/C (second compound 0.003 µM, first compound 0.1 µM) of 97.8% and a viability, T/C (second compound 0.003 µM, first compound 0.316 µM) of 92.4%. For the same compound, the viability, T/C (second compound 0.003 µM, first compound 1 µM) was 84.1%, the viability, T/C (second compound 0.003 µM, first compound 3.16 µM) was 71.7% and the viability, T/C (second compound 0.003 µM, first compound 10 µM) was 58.1%. It also gave a viability, T/C (second compound 0.00949 µM, first compound 0.0316 µM) of 92.7%, a viability, T/C (second compound 0.00949 µM, first compound 0.1 µM) of 90.9% and a viability, T/C (second compound 0.00949 µM, first compound 0.316 µM) of 74%. For the same compound, the viability, T/C (second compound 0.00949 µM, first compound 1 µM) was 74%, the viability, T/C (second compound 0.00949 µM, first compound 3.16 µM) was 57.6% and the viability, T/C (second compound 0.00949 µM, first compound 10 µM) was 56.2%. For the same compound, the viability, T/C (second compound 0.03 µM, first compound 0.0316 µM) was 92.1%, the viability, T/C (second compound 0.03 µM, first compound 0.1 µM) was 77.6% and the viability, T/C (second compound 0.03 µM, first compound 0.316 µM) was 89.5%. The viability, T/C (second compound 0.03 µM, first compound 1 µM) was 55.8%, the viability, T/C (second compound 0.03 µM, first compound 3.16 µM) was 56.3% and the viability, T/C (second compound 0.03 µM, first compound 10 µM) was 43.8%. It also gave a viability, T/C (second compound 0.0949 µM, first compound 0.0316 µM) of 78.2%, a viability, T/C (second compound 0.0949 µM, first compound 0.1 µM) of 80.3% and a viability, T/C (second compound 0.0949 µM, first compound 0.316 µM) of 59.7%. It also gave a viability, T/C (second compound 0.0949 µM, first compound 1 µM) of 51.4%, a viability, T/C (second compound 0.0949 µM, first compound 3.16 µM) of 56.1% and a viability, T/C (second compound 0.0949 µM, first compound 10 µM) of 36.2%. For the same compound, the viability, T/C (second compound 0.3 µM, first compound 0.0316 µM) was 85.4%, the viability, T/C (second compound 0.3 µM, first compound 0.1 µM) was 69.6% and the viability, T/C (second compound 0.3 µM, first compound 0.316 µM) was 65.5%. It also gave a viability, T/C (second compound 0.3 µM, first compound 1 µM) of 58.7%, a viability, T/C (second compound 0.3 µM, first compound 3.16 µM) of 57% and a viability, T/C (second compound 0.3 µM, first compound 10 µM) of 42.3%.

CC1(C)CCC(Nc2ncc(C(F)(F)F)c(-c3c[nH]c4c(P(C)(C)=O)c(C#N)ccc34)n2)CN1 (configuration not stated) was tested, and the viability, T/C (compound 0.000949 µM) was 110% (2×) and 103% and 111%, the viability, T/C (compound 0.003 µM) was 90.3% [middle of 4 runs] and the viability, T/C (compound 0.00949 µM) was 77.3% [middle of 4 runs]. For the same compound, the viability, T/C (compound 0.03 µM) was 62.6% [middle of 4 runs], the viability, T/C (compound 0.0949 µM) was 50.2% [middle of 4 runs] and the viability, T/C (compound 0.3 µM) was 49.1% [middle of 4 runs].

For C=CC(=O)Nc1cc(Nc2nccc(-c3cn(C)c4ccccc34)n2)c(OC)cc1N(C)CCN(C)C + C=CC(=O)N1CCN(c2nc(OCC3CCCN3C)nc3c(F)c(-c4nc(N)cc(C)c4C(F)(F)F)c(Cl)cc23)C(C)C1, the IC50 (curve of first compound, second compound 0.00316 µM) was greater than 1000 nM, the IC50 (curve of first compound, second compound 0.01 µM) was greater than 1000 nM and the IC50 (curve of first compound, second compound 0.0316 µM) was greater than 1000 nM. It also gave an IC50 (curve of first compound, second compound 0.1 µM) greater than 1000 nM, an IC50 (curve of first compound, second compound 0.316 µM) greater than 1000 nM and an IC50 (curve of first compound, second compound 1 µM) greater than 1000 nM. For the same compound, the viability, T/C (second compound 0.00316 µM, first compound 0.00316 µM) was 101%, the viability, T/C (second compound 0.00316 µM, first compound 0.01 µM) was 111% and the viability, T/C (second compound 0.00316 µM, first compound 0.0316 µM) was 102%. The viability, T/C (second compound 0.00316 µM, first compound 0.1 µM) was 100%, the viability, T/C (second compound 0.00316 µM, first compound 0.316 µM) was 81.6% and the viability, T/C (second compound 0.00316 µM, first compound 1 µM) was 75.6%. The viability, T/C (second compound 0.01 µM, first compound 0.00316 µM) was 94.8%, the viability, T/C (second compound 0.01 µM, first compound 0.01 µM) was 102% and the viability, T/C (second compound 0.01 µM, first compound 0.0316 µM) was 109%. The viability, T/C (second compound 0.01 µM, first compound 0.1 µM) was 104%, the viability, T/C (second compound 0.01 µM, first compound 0.316 µM) was 96.7% and the viability, T/C (second compound 0.01 µM, first compound 1 µM) was 67.8%. For the same compound, the viability, T/C (second compound 0.0316 µM, first compound 0.00316 µM) was 111%, the viability, T/C (second compound 0.0316 µM, first compound 0.01 µM) was 122% and the viability, T/C (second compound 0.0316 µM, first compound 0.0316 µM) was 104%. For the same compound, the viability, T/C (second compound 0.0316 µM, first compound 0.1 µM) was 99.7%, the viability, T/C (second compound 0.0316 µM, first compound 0.316 µM) was 74.8% and the viability, T/C (second compound 0.0316 µM, first compound 1 µM) was 73.9%. It also gave a viability, T/C (second compound 0.1 µM, first compound 0.00316 µM) of 95.7%, a viability, T/C (second compound 0.1 µM, first compound 0.01 µM) of 94.2% and a viability, T/C (second compound 0.1 µM, first compound 0.0316 µM) of 98.7%. For the same compound, the viability, T/C (second compound 0.1 µM, first compound 0.1 µM) was 104%, the viability, T/C (second compound 0.1 µM, first compound 0.316 µM) was 90.9% and the viability, T/C (second compound 0.1 µM, first compound 1 µM) was 52.5%. It also gave a viability, T/C (second compound 0.316 µM, first compound 0.00316 µM) of 110%, a viability, T/C (second compound 0.316 µM, first compound 0.01 µM) of 102% and a viability, T/C (second compound 0.316 µM, first compound 0.0316 µM) of 90.8%. The viability, T/C (second compound 0.316 µM, first compound 0.1 µM) was 101%, the viability, T/C (second compound 0.316 µM, first compound 0.316 µM) was 84.7% and the viability, T/C (second compound 0.316 µM, first compound 1 µM) was 66.9%. For the same compound, the viability, T/C (second compound 1 µM, first compound 0.00316 µM) was 113%, the viability, T/C (second compound 1 µM, first compound 0.01 µM) was 99.6% and the viability, T/C (second compound 1 µM, first compound 0.0316 µM) was 100%. It also gave a viability, T/C (second compound 1 µM, first compound 0.1 µM) of 81%, a viability, T/C (second compound 1 µM, first compound 0.316 µM) of 75.5% and a viability, T/C (second compound 1 µM, first compound 1 µM) of 57.9%.

CC(C)NCC(C(=O)N1CCN(c2ncnc3c2C(C)CC3O)CC1)c1ccc(Cl)cc1 (configuration not stated) was tested, and the viability, T/C (compound 0.0316 µM) was 96.6% [middle of 4 runs], the viability, T/C (compound 0.1 µM) was 93.9% [middle of 4 runs] and the viability, T/C (compound 0.316 µM) was 80.4% [middle of 4 runs]. For the same compound, the viability, T/C (compound 1 µM) was 58.8% [middle of 4 runs], the viability, T/C (compound 3.16 µM) was 47.7% [middle of 4 runs] and the viability, T/C (compound 10 µM) was 35% [middle of 4 runs]. The IC50 (curve of compound) was 2.32 µM [middle of 4 runs].

Source: PubChem BioAssay AID2060906 (Molecular Pharmacology Branch, DTP, NCI, 2025)
